Results published in patent publication US20210355532A1, “METHODS AND REAGENTS FOR DETECTING AND ASSESSING GENOTOXICITY” (TwinStrand Biosciences, Inc., priority 2018, published 2021).
Entries after “also recorded” stand apart in the source; their conditions may differ.

Experiments:
Format in all cases: in vivo, mouse
[1] = tested on: BigBlue® transgenic C57BL/6 male mice; assay: Duplex Sequencing mutant frequency and spectrum in BigBlue transgenic mice (cII transgene and endogenous genes)
Experimental: Tissues were collected and frozen on study day 31. Liver and bone marrow were analyzed for mutants. DNA was isolated and mutants analyzed for cII mutant plaques using RecoverEase and Transpack methods described by Agilent Technologies. Duplex Sequencing was used to sequence cII and other endogenous genes for mutations in liver and bone marrow.
Genes evaluated and criteria used to select genes are as follows: (1) Polr1c (RNA polymerase), which is ubiquitously transcribed in all tissue types; (2) Rho (Rhodopsin), which is not expressed in any tissue besides retina; (3) Hp (Haptoglobin), which is highly expressed in liver, but almost nowhere else; (4) Ctnnb1 (Beta-catenin), which is most commonly mutated gene in human hepatocellular carcinoma; and (5) CII: 360 bp transgenic reporter gene present in ˜80 copies in BigBlue® mice.
FIGS. 3A-3D are box plot graphs showing mutant frequencies calculated for Duplex Sequencing (FIGS. 3A and 3B) and the BigBlue® cII plaque assay (FIGS. 3C and 3D) in liver and bone marrow following mutagen treatment as described above. MF for Duplex Sequencing was based on total mutants per duplex base-pair sequenced (n=5 mice/group). MF for BigBlue® was calculated as number of mutant plaques relative to number of […] (n=6 mice/group).

Tg.rasH2 mice = assay: Duplex Sequencing mutant frequency and spectrum in Tg.rasH2 mice dosed with urethane; conditions: for Mutation Frequency: urethane day 1,3,5, sacrifice day 29, Duplex Sequencing
Excerpt: (§1) In this example, the impact of a urethane is examined in different mouse tissue types (lung, spleen, blood) in an FDA-approved cancer-predisposed mouse model: Tg.rasH2 (Saitoh et al. Oncogene 1990. PMID 2202951). This mouse contains ˜3 tandem copies of human Hras with an activating enhancer mutation to boost expression on one hemizygous allele. These mice are predisposed to splenic angiosarcomas and lung adenocarcinomas, and are routinely used for 6 month carcinogenicity studies to substitute for 2 year native animal studies. Tumors found in the mice have usually acquired activating mutations in one copy of the human Hras protooncogene. In this addition to the 4 native mouse genes (Rho, Hp, Ctnnb1, Polr1c), the native mouse Hras and human Hras transgene are also analyzed in this example.
(§2) In this example, Tg.rasH2 mice (n=5/group) were dosed with vehicle or a carcinogenic dose of urethane (day 1,3,5) and sacrificed on day 29 for mutation detection by Duplex Sequencing in target tissues (lung, spleen) and whole blood. The endogenous genes (Rho, Hp, Ctnnb1, Polr1c) and the native mouse and human Hras (trans)genes were also sequenced.
FIG. 8 is a bar graph showing mutant frequency (MF) of lung, spleen and blood samples for control and experimental animals subjected to urethane. In this analysis, every unique variant detected was counted as one mutation, which were summed per sample. This was divided by the total number of Duplex Bases sequenced and across the entire capture region. The number of events is noted above each sample. In total, across all 30 samples, 3,966,947,832 Duplex Sequenced base pairs were generated.
Referring to FIG. 9 and Table 1 together, differences between vehicle control (VC) and treatment groups were highly significant. A Welch's t-test (for unequal variances) was used to determine the significance of the mutagen treated tissue's mutant frequency over that of the control for that tissue. The slightly wider confidence intervals with blood reflects a lower average depth of sequencing in the blood VC samples in this particular example. It is anticipated that this can be corrected using the methods described herein.

[2] = tested on: human HRAS transgene codon 61; assay: Duplex Sequencing detection of clonal oncogenic mutations in human HRAS transgene of Tg.rasH2 mice; conditions: day 29
Excerpt: as §1, §2
FIG. 15A is a graph illustrating SNVs plotted over the genomic intervals for the exons captured from the Ras family of genes, including the human transgenic loci, in the Tg-rasH2 mouse model. Singlets are mutations found in a single molecule. Multiplets are an identical mutation identified within multiple molecules within the same sampler and may represent a clonal expansion event. The height of each point corresponds to the variant allele frequency (VAF) of each SNV, with the with the size of the point corresponds to the for multiplet observations only. The location and relative frequency of Ras family human cancer mutational hotspots in COSMIC are indicated below each gene. FIG. 15B is a graph illustrating single nucleotide variants (SNVs) aligning to exon 3 of the human HRAS transgene. Highlighted is the center residue in codon number 61 in exon 3 of human HRAS, the most common HRAS cancer-driving hotspot.

Fold Increase of mutation frequency over vehicle control (Tg.rasH2 mice; Blood) [x]	Mutation Frequency (Tg.rasH2 mice; Blood, Tg.rasH2 mice)	Fold Increase of mutation frequency over vehicle control (Tg.rasH2 mice; Lung) [x]	Mutation Frequency (Tg.rasH2 mice; Lung, Tg.rasH2 mice)	Fold Increase of mutation frequency over vehicle control (Tg.rasH2 mice; Spleen) [x]	Mutation Frequency (Tg.rasH2 mice; Spleen, Tg.rasH2 mice)	Variant allele frequencies of HRAS codon 61 mutation ([2]; four out of five treated lung samples)	Fraction of treated samples with T>A transversions at human oncogenic Hras codon 61 hotspot ([2]; lung samples)	Fraction of treated samples with T>A transversions at human oncogenic Hras codon 61 hotspot ([2]; splenic samples)	Structure (SMILES)	MF in 4 endogenous genes (Polr1c, rhodopsin, haptoglobin, beta-catenin) ([1]; BigBlue mice, liver and bone marrow)	Mutation spectrum, distinguishing mutation types ([1]; aggregated across all genes, all tissues, unsupervised cluster analysis)	Mutation load relative to controls ([1]; bone marrow and liver, cII transgene, BigBlue mice, study day 31)	Trinucleotide context hotspots (most vulnerable contexts) ([1]; trinucleotide spectra, BigBlue mice)	Trinucleotide (triplet) mutation spectrum, predominant mutation (Tg.rasH2 mice; lung, spleen, blood, Tg.rasH2 mice)
–	–	–	–	–	–	–	–	–	CCN(N=O)C(N)=O [ENU, N-ethyl-N-nitrosourea]	increased	preponderance of T→C, T→A, and C→T mutations	significantly increased relative to controls	GTS and GTG and GTC	–
2.2	2.39e−07	7.5	5.04e−07	3.3	2.73e−07	0.1%-1.8%	⅘	⅕	CCOC(N)=O [Urethane, urethane]	–	–	–	–	T:A→A:T within the motif “NTG” is shown as the most common mutation; also recorded: strong propensity for T→A and T→C mutations within the context of “NTG”
